Holding throughout (format): functional
Test [1] in a line: cytotoxicity in HPDE-C7 cells, cell-based, fluorescence, HTS (AID 430). As to conditions: Homo sapiens.
Test [2] is described as follows: cytotoxicity in KRAS-transformed pancreatic duct cells, primary screen, cell-based, fluorescence, HTS (AID 431). The conditions noted are these: Homo sapiens.
In test [3] the target is T1, Fatty acid synthase (Homo sapiens, UniProt P49327). The experiment in a line: FAS thioesterase domain inhibitors, dose response, biochemical, kinetic fluorescence intensity (AID 624326).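 Further: rate of fluorescence rise from hydrolysis of a fluorogenic O-methyl fluorescein ester substrate.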
T1 sequence (P49327 whole entry, the tested form may be a part): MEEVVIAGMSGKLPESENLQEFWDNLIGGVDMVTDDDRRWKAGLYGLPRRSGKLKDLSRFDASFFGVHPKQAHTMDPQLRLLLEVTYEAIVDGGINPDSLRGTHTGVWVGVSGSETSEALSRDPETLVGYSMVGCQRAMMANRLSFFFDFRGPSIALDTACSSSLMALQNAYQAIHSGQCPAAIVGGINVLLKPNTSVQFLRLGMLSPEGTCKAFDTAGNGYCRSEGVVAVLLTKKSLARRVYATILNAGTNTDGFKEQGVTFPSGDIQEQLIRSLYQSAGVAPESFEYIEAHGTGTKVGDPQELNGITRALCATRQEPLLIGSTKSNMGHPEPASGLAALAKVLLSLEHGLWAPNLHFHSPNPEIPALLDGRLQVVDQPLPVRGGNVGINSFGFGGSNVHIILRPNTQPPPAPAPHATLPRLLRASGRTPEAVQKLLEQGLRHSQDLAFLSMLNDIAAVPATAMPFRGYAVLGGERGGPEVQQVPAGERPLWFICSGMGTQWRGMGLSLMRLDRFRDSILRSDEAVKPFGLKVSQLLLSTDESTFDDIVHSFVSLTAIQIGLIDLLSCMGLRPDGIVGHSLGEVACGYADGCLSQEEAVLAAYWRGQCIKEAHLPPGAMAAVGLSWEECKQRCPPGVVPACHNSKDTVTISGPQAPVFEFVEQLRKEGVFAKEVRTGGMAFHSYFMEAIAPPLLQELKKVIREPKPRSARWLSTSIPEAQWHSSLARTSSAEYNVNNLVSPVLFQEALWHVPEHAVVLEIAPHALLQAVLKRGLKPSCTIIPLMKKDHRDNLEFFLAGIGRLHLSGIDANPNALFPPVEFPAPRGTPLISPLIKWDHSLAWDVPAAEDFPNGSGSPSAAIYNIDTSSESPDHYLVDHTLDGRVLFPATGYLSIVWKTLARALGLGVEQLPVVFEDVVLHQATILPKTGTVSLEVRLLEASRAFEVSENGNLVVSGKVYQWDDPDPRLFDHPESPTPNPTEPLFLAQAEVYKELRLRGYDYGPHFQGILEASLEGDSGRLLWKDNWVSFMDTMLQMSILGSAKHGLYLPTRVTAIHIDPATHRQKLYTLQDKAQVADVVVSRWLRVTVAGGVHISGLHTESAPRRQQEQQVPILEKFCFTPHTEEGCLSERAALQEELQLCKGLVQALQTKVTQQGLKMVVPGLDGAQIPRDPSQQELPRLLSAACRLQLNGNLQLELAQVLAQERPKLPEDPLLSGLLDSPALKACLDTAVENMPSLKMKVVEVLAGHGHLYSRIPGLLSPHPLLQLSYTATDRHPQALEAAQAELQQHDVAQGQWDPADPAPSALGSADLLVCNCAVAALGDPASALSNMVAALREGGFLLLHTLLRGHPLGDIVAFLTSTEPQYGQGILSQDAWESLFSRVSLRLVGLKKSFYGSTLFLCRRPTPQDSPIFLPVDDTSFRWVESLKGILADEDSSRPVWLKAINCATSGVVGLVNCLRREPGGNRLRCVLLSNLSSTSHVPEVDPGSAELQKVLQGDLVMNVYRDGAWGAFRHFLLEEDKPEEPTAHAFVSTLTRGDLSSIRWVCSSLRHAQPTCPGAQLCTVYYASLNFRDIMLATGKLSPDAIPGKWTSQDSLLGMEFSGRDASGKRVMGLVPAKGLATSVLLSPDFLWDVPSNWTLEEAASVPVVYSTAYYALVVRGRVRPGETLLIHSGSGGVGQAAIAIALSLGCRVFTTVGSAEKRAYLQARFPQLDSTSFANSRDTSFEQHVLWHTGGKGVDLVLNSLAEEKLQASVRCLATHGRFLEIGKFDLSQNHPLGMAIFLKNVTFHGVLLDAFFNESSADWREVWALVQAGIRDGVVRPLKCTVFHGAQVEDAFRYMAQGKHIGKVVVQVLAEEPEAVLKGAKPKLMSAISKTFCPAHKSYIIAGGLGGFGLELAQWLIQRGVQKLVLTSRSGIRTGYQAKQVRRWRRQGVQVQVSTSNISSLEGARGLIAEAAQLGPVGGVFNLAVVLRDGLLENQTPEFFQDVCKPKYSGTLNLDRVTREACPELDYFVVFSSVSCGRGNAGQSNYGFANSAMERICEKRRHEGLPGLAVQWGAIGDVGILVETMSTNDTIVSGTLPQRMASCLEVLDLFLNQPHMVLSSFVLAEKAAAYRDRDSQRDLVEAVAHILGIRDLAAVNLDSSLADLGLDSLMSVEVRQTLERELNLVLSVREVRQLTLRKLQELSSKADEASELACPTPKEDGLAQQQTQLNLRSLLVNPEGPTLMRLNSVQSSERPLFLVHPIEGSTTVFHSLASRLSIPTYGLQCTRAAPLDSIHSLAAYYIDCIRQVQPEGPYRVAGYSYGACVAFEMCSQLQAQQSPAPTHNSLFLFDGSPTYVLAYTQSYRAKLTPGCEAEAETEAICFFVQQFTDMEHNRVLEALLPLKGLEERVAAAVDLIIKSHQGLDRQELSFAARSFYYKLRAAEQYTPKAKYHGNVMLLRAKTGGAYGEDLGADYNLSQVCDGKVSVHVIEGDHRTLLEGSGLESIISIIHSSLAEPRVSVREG
A short description of test [4]: nonselective inhibitors of cellular cAMP signaling, dose response, counter-screen for MC4R biased antagonist project, cell-based, TR-FRET cAMP detection (AID 602305).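 Further: U2OS cells stimulated with forskolin near its EC80 as the cAMP inducer; potency is for inhibition of forskolin-stimulated cAMP signaling.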 On the technique in general: A counterscreen serves to expose hits that act by an unwanted route or on another target.
Test [5] is described as follows: Luminescent dose response cell-based high throughput screening assay for inhibitors of the Janus kinase 2 mutant JAK2V617F. [Related pubchem assays: 1446 (Primary screen.), 1521 (Confirmation assay.), 1486 (Counter screen.)].
The target in test [6] is T1, Fatty acid synthase. Description: FAS thioesterase domain inhibitors, dose response, biochemical, endpoint fluorescence intensity, uHTS hits (AID 624327).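 Further: fluorescence from hydrolysis of an O-methyl fluorescein acyl ester substrate by the enzyme.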
The nature of test [7]: inhibitors of PGC1a acetylation in cells, dose response, cell-based, cherry-picked samples (AID 720514).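 Further: potency may reflect raised or lowered acetylation signal.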
The target in test [8] is T2, Replicative DNA helicase DnaB (Mycobacterium tuberculosis, UniProt P9WMR3).
T2 sequence (P9WMR3 whole entry): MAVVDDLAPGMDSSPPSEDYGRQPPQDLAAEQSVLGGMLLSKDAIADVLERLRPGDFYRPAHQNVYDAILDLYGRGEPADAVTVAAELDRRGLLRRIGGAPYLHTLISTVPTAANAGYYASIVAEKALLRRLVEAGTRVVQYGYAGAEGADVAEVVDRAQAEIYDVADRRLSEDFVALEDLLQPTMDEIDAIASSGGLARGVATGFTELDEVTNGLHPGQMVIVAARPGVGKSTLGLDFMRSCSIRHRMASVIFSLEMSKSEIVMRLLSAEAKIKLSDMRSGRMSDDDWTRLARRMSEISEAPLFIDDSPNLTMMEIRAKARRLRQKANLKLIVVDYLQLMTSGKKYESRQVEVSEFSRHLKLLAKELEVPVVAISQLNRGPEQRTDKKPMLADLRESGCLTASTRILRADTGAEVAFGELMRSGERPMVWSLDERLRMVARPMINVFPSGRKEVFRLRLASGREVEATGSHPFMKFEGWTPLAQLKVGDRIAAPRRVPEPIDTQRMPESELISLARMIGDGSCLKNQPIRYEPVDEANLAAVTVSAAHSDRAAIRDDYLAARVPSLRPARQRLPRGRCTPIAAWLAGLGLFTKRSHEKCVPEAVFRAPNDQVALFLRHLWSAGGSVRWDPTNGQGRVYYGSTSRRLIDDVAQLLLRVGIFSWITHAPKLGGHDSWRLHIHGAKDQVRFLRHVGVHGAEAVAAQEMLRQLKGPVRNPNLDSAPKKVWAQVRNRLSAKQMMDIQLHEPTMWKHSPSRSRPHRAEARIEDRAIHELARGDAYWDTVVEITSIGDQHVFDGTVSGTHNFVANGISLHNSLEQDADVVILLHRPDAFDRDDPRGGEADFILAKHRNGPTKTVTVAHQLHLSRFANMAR
The experiment in a line: DnaB intein splicing inhibitors, dose response, biochemical, cell-free fluorescence (AID 449749).

The target of a further test is T3, Protein RecA (Mycobacterium tuberculosis, UniProt P9WHJ3).
T3 sequence (P9WHJ3 whole entry): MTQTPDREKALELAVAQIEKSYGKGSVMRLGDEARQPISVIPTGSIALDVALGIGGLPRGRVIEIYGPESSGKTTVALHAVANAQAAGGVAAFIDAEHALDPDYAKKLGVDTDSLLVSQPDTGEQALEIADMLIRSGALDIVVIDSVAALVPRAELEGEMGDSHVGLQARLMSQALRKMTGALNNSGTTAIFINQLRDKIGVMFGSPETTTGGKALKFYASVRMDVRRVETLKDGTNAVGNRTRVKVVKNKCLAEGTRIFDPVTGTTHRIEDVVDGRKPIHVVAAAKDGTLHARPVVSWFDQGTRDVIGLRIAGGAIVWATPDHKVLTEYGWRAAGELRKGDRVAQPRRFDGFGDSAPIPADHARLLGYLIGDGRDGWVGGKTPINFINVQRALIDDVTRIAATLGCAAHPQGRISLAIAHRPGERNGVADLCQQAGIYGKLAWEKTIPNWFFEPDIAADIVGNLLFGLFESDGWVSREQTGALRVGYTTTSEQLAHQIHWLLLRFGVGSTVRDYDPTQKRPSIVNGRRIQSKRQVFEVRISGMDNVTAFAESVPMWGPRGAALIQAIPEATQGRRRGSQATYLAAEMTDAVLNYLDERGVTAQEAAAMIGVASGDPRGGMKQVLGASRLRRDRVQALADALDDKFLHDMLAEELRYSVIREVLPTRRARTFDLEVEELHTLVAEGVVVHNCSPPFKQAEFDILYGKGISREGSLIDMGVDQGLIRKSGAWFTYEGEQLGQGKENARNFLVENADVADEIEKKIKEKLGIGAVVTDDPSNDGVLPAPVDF
Description: Fluorescence Cell-Free Homogeneous Dose Retest to Identify Inhibitors of RecA-Intein Splicing Activity. [Related pubchem assays (depositor defined):AID2097, AID2223, AID489010, AID492950].

Test [9] has as its target T4, Sphingosine 1-phosphate receptor 1 (Homo sapiens, UniProt P21453).
Test [10] concerns the target T5, Sphingosine 1-phosphate receptor 4 (Homo sapiens, UniProt O95977).
T5 sequence (O95977 whole entry): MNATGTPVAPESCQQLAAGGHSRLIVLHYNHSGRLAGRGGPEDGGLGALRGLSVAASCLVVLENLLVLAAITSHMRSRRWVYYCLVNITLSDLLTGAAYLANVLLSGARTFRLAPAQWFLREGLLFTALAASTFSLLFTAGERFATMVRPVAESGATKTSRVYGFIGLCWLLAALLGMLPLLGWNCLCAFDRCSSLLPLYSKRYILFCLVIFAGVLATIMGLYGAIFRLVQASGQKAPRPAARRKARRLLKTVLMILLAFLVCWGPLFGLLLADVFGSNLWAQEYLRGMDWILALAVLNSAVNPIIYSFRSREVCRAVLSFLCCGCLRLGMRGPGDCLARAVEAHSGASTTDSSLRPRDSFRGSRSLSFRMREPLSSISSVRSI
Description: Fluorescence dose response cell-based high throughput screening assay for antagonists of the Sphingosine 1-Phosphate Receptor 4 (S1P4). [Related pubchem assays: 1524 (Confirmation in triplicates.), 1510 (Primary screen.)].

For test [11], the target named is T5, Sphingosine 1-phosphate receptor 4. Description: Late stage fluorescence dose response cell-based screening assay for antagonists of the Sphingosine 1-Phosphate Receptor 4 (S1P4). [Related pubchem assays: 1524 (Confirmation screen (S1P4 antagonists).), 1510 (Primary screen (S1P4 antagonists).), 1853 (Summary AID (S1P4 antagonists).), 1692 (Dose response screen (S1P4 antagonists).)].

Another test addresses Melanocortin receptor 4 (Homo sapiens, UniProt P32245). Description: MC4R antagonist potency on cAMP, dose response, cell-based, TR-FRET, biased antagonists (AID 602298).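 Further: antagonist potency against agonist-stimulated cAMP production.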 A general note: Time-resolved FRET reads energy transfer from a long-lived donor to a nearby acceptor.
The target of test [12] is T6, Heat shock factor protein 1 (Mus musculus, UniProt P38532).
T6 sequence (P38532 whole entry): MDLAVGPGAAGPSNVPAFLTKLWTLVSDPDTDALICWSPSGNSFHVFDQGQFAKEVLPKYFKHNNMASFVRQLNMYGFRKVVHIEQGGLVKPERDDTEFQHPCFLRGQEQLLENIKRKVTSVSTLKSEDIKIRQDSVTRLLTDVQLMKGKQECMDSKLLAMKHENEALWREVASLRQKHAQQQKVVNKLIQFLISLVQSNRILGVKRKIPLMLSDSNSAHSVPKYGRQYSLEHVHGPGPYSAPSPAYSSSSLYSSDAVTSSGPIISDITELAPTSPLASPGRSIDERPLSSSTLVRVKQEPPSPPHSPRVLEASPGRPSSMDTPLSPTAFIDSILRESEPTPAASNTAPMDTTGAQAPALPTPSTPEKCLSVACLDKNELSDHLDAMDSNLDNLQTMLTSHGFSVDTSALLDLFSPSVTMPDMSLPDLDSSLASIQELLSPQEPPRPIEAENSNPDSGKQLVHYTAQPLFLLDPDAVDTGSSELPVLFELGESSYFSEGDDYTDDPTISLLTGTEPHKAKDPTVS
Description: HSF1 potentiators in luciferase reporter cells, confirmation, cell-based, NIH3T3, luminescence, dose retest (AID 435004).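 Further: stress induced by proteasome inhibitor MG132 added 30 min after compound; luciferase reporter driven by HSF1 response element in NIH3T3 cells; actives raise luminescence as potentiators of the MG132 stress response.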 Background: Reporter assays use an easily measured gene product as a stand-in for the process of interest.

Test [13] addresses T7, Sphingosine 1-phosphate receptor 3 (Homo sapiens, UniProt Q99500). Description: Late-stage fluorescence-based dose-response cell-based counterscreen assay to identify agonists of the Sphingosine 1-Phosphate Receptor 4 (S1P4): Sphingosine 1-Phosphate Receptor 3 (S1P3) antagonist assay Set 2.
The target of test [14] is T5, Sphingosine 1-phosphate receptor 4. Description: Late-stage fluorescence-based dose-response cell-based counterscreen assay to identify agonists of the Sphingosine 1-Phosphate Receptor 4 (S1P4): inhibition by S1P4-selective antagonist 0.4 nM.
For test [15] the target is unchanged. The experiment in a line: Late-stage fluorescence-based dose-response cell-based counterscreen assay to identify agonists of the Sphingosine 1-Phosphate Receptor 4 (S1P4): inhibition by S1P4-selective antagonist 100 nM.
Test [16] has the same target. Description: Late-stage fluorescence-based dose-response cell-based counterscreen assay to identify agonists of the Sphingosine 1-Phosphate Receptor 4 (S1P4): inhibition by S1P4-selective antagonist 11 nM.
Test [17] deals with T8, Sphingosine 1-phosphate receptor 2 (Homo sapiens, UniProt O95136). Description: S1P2 receptor agonists, human, late-stage follow-up, counter-screen for S1P4 agonist project, cell-based, fluorescence, set 2 (AID 504873).
T8 sequence (O95136 whole entry): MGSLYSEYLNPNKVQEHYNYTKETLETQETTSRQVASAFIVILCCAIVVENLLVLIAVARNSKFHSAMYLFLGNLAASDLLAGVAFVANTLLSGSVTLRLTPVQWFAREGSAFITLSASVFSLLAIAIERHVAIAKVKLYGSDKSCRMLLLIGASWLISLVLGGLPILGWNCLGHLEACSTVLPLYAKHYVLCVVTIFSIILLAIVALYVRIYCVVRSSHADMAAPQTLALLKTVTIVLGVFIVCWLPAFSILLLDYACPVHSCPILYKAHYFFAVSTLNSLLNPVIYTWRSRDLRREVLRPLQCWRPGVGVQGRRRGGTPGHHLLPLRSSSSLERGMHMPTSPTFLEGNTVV
The target of test [18] is T8, Sphingosine 1-phosphate receptor 2. Description: Late-stage fluorescence-based dose-response cell-based counterscreen assay to identify agonists of the Sphingosine 1-Phosphate Receptor 4 (S1P4): Sphingosine 1-Phosphate Receptor 2 (S1P2) antagonist assay Set 2.
Test [19] addresses Sphingosine 1-phosphate receptor 5 (Homo sapiens, UniProt Q9H228). Description: Late-stage fluorescence-based dose-response cell-based counterscreen assay to identify agonists of the Sphingosine 1-Phosphate Receptor 4 (S1P4): Sphingosine 1-Phosphate Receptor 5 (S1P5) antagonist assay Set 2.
Test [20] deals with T5, Sphingosine 1-phosphate receptor 4. The experiment in a line: (§1) Late-stage fluorescence-based dose-response cell-based counterscreen assay to identify agonists of the Sphingosine 1-Phosphate Receptor 4 (S1P4): inhibition by S1P4-selective antagonist […].
Test [21] concerns the target T4, Sphingosine 1-phosphate receptor 1. The experiment in a line: Late-stage fluorescence-based dose-response cell-based counterscreen assay to identify agonists of the Sphingosine 1-Phosphate Receptor 4 (S1P4): Sphingosine 1-Phosphate Receptor 1 (S1P1) agonist assay Set 2.
Test [22] addresses T5, Sphingosine 1-phosphate receptor 4. The description is as §1. This is another data set of the same source.
For test [23] the target is unchanged. The experiment in a line: Late-stage fluorescence-based dose-response cell-based counterscreen assay to identify agonists of the Sphingosine 1-Phosphate Receptor 4 (S1P4): inhibition by S1P4-selective antagonist 33 nM.
Test [24] has the same target. Description: Late-stage fluorescence dose-response cell-based counterscreen assay to identify agonists of the Sphingosine 1-Phosphate Receptor 4 (S1P4): Sphingosine 1-Phosphate Receptor 4 (S1P4) antagonist assay Set 2.
The target of test [25] is T7, Sphingosine 1-phosphate receptor 3. Description: Late-stage fluorescence-based dose-response cell-based counterscreen assay to identify agonists of the Sphingosine 1-Phosphate Receptor 4 (S1P4): Sphingosine 1-Phosphate Receptor 3 (S1P3) agonist assay Set 2.
Test [26] concerns the target T4, Sphingosine 1-phosphate receptor 1. Description: Late-stage fluorescence-based dose-response cell-based counterscreen assay to identify agonists of the Sphingosine 1-Phosphate Receptor 4 (S1P4): Sphingosine 1-Phosphate Receptor 1 (S1P1) antagonist assay.
Test [27] deals with T5, Sphingosine 1-phosphate receptor 4. The experiment in a line: Late-stage fluorescence-based dose-response cell-based counterscreen assay to identify agonists of the Sphingosine 1-Phosphate Receptor 4 (S1P4): inhibition by S1P4-selective antagonist control.
A short description of test [28]: cytotoxicity of S1P4 agonist candidates, late-stage follow-up, cytotoxicity control for S1P4 agonist project, cell-based, luminescence, dose response, set 2, assay provider (AID 504875).

Activity calls are given as the source filed them. Unless noted, the calls are words filed in the database; no cut-off is given here.

From ChEMBL document CHEMBL1201862, “PubChem BioAssay data set” (2004) come the findings set out here.

T4 sequence (P21453 whole entry): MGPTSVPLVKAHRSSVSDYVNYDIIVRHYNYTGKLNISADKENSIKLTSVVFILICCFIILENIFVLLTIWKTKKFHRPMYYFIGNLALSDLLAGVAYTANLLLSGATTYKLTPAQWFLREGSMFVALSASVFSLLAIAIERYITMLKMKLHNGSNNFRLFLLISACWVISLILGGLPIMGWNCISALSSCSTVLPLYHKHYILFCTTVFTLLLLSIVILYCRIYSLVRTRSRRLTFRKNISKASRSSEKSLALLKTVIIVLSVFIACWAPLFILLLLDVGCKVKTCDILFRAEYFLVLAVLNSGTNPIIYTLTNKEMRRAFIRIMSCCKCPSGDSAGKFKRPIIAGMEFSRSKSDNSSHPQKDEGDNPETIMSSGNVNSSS
T7 sequence (Q99500 whole entry): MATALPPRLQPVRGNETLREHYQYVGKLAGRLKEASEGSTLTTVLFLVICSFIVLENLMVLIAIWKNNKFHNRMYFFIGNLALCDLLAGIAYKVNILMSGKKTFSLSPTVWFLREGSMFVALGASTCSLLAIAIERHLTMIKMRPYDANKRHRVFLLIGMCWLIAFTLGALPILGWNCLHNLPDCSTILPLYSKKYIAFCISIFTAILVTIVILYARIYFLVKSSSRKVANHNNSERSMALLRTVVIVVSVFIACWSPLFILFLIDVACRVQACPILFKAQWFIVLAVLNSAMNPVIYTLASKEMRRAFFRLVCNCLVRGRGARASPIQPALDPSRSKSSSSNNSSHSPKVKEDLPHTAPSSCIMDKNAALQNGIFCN
Sequence of Sphingosine 1-phosphate receptor 5 (Q9H228 whole entry): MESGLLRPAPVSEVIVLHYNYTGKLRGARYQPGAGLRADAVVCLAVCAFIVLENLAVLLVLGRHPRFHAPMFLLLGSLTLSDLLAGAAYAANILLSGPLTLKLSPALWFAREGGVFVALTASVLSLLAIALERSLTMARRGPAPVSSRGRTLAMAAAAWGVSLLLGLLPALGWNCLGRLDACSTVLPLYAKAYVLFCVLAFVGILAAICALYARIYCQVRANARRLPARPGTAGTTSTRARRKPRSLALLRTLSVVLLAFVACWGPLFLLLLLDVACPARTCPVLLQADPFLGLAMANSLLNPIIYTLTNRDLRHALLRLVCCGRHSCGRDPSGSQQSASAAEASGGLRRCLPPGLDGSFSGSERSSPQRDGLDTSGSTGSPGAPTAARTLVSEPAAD
Sequence of Melanocortin receptor 4 (P32245 whole entry): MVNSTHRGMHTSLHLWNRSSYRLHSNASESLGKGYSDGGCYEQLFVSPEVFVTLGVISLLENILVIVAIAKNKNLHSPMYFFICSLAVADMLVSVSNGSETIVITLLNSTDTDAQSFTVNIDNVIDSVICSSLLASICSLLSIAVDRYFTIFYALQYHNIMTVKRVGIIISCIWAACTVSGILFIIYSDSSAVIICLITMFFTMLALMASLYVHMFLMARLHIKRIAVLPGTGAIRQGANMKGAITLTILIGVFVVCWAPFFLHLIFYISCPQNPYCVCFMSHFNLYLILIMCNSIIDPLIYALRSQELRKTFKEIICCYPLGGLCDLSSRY

`Cc1ccccc1CS(=O)(=O)c1nnc([C@H](CC(C)C)NC(=O)OC(C)(C)C)o1`: the EC50 (as a rule, the concentration at which the effect is half-maximal) in test [1] is 8.56 µM (active); in test [2], 11.9 µM (active); on Protein RecA, 11.6 µM (active); in [12], > 260 µM (inactive). Moreover, the IC50 – broadly, the point on the concentration scale where inhibition reaches its midpoint – was 7.36 µM (active) on Fatty acid synthase [3]; > 64.6 µM (inactive) in test [4]; 0.632 µM (active) in test [5]; 12.3 µM (active) on Fatty acid synthase [6]; 38.9 µM (not active) in [9]; 1.2 µM (active) in test [10]. Besides, the IC50 in [11] is 2.89 µM (not active); at Melanocortin receptor 4, > 64.6 µM (inactive). In addition, the AC50 (usually the midpoint of the concentration-response curve, whichever way the signal moves) was 16 µM (active) in test [7] and 93.7 µM (active) in test [8].
As to `COCC/N=C1\S/C(=C\c2cc(C)n(-c3ccc(F)cc3F)c2C)C(=O)N1C`, the IC50 was ~8.9 µM (active) in [13]; 6.76 µM (active) in test [18]; > 25 µM (inactive) in [19]; > 25 µM (inactive) in test [24]; > 25 µM (inactive) in [26]. For the same compound, the EC50 in [14] was 0.04 µM (active); in test [15] it was > 3.3 µM (inactive); in test [16], > 3.3 µM (inactive); in test [17], > 25 µM (inactive); in test [20] it was 0.173 µM (active); in test [21], > 25 µM (inactive). For the same compound, the EC50 in test [22] was > 3.3 µM (inactive); in [23], > 3.3 µM (inactive); in test [25] it was > 25 µM (inactive); in test [27], 0.0154 µM (active). Moreover, the CC50 (as a rule, the concentration giving 50% cytotoxicity) in test [28] was > 10 µM (inactive).
